The values below are quoted from earlier work in patent US7678905B2, “Aminotetrahydropyrans as dipeptidyl peptidase-IV inhibitors for the treatment or prevention of diabetes” (Merck Sharp & Dohme Corp., priority 2006, dated 2010).

One data set has as its system cardiac allograft. The conditions noted are these: rats; survival doubled from day 7.
The test system of a further data set is hematopoiesis. Particulars: mouse, cyclophosphamide-induced neutropenia.
Data set [1] relates to GRF degradation in plasma.

Regarding `CC(C)N1CCC(c2ccccc2)(c2ccccc2)CC1` [Prodipine, Pro-Pro-diphenyl-phosphonate], in the data set with cardiac allograft, the cardiac allograft survival was 14 day.
For the molecule `CC(C)[C@H](N)C(=O)N1CCC[C@H]1B(O)O` [Val-Boro-Pro], in the data set on hematopoiesis, the effect on hematopoiesis entry was “stimulated hematopoiesis”.
Turning to diprotin A, the “degradation of GRF to GRF[3-44] in plasma” value in data set [1] is given as “prevented”.
